Earlier results, collected in patent US20020040034A1, “Methods for treating allergic asthma using descarboethoxyloratadine” (priority 1997, published 2002).

How the values were obtained:
[1] = test system: allergic bronchospasm; details: milligram by milligram basis
[2] = test system: melanoma and fibrosarcoma tumors

Row | Compound | Inhibition of allergic bronchospasm, potency compared with terfenadine [1] | Association with tumor growth [2]
1 | CCOC(=O)N1CCC(=C2c3ccc(Cl)cc3CCc3cccnc32)CC1 [Loratadine] | four times more potent than terfenadine | associated with growth of both melanoma and fibrosarcoma tumors
2 | COc1ccc(CCN2CCC(Nc3nc4ccccc4n3Cc3ccc(F)cc3)CC2)cc1 [astemizole] |  | associated with growth of both melanoma and fibrosarcoma tumors
